Measured values taken from patent US20020156013A1, “Asthma associated factors as targets for treating atopic allergies including asthma and related disorders” (priority 1997, published 2002).

Key:
[1] = test system: Elk (a target of the MAPK pathway); test: PathDetect signal transduction pathway reporting system (GAL4-Elk luciferase reporter) with activated M-Ras mutants; type: cell-based; conditions: HEK293 cells, GAL4-Elk fusion
From the text: In order to characterize the pathway stimulated by activated M-Ras, applicants tested the ability of activated mutants to up-regulate the mitogen-activated protein kinase (MAPK) pathway or the c-Jun N-terminal kinase (JNK) pathway using an in vitro signal transduction pathway reporting system (FIG. 11). This luciferase-based assay allows for indirect measurement of Elk (target of the MAPK pathway) or Jun (target of the JNK pathway) protein activation. Activated MEK1, which activates Elk, served as a positive control for the MAPK pathway whereas activated MEKK was used as a positive control for the JNK pathway because it activates Jun.
The results of this experiment are shown in FIG. 12 for the MAPK pathway. […] In addition, M-Ras-1, M-Ras-2 and M-Ras-3 mutants activated Elk, indicating M-Ras induced activation of the MAPK pathway.
To characterize the activation pathway triggered by activated M-Ras, the ability of the M-Ras mutants described in Example 8 to activate the mitogen-activated protein kinase (MAPK) pathway or the c-JUN N-terminal Kinase (JNK) pathway was tested using the PathDetect in vivo signal transduction pathway reporting system (Stratagene). […] As expected, significant luciferase activity was detected when cells expressed the GAL4-Elk fusion protein together with activated MEK-1. […]

[2] = test system: TS2 cells; test: Cytokine-induced proliferation of TS2 cells (tritiated thymidine); type: cell-based, murine
Method: TS2 cells were grown in DMEM medium supplemented with 10% fetal calf serum, 50 μM 2-mercaptoethanol, 0.55 mM L-arginine, 0.24 mM L-asparagine and 1.25 mM L-glutamine.
The murine T-cell line TS2 grows in response to IL-2 and IL-9 in vitro. […] Cells which were maintained in medium described in Example 1 plus IL-2, were washed once with phosphate-buffered saline and plated at 3000 cells per well in the presence of 200 U/ml IL-2 or 200 U/ml of IL-9. Cells were grown for three days in the presence of […] (10 μM) and then pulsed for four hours with tritiated thymidine. The cells were then harvested onto glass fiber filters and analyzed by scintillation counting.
The data is shown as percent growth as compared to cytokine only.

[3] = test system: BaF3 cells; test: Proliferation of BaF3 cells transfected with wild-type or constitutively active mutant M-Ras; type: cell-based, murine
Method: To assess the ability of M-Ras to be able to exert a constitutive activity on cellular proliferation and to abrogate the requirement of cytokines in a cytokine-dependent cell line, site directed mutagenesis was used to generate mutant M-Ras proteins to assess their activities. Alignment of M-Ras to the H- and K-Ras proteins permitted identification of potential residues that may result in constitutive activation of M-Ras. Two mutants were prepared at codon 22, substituting a Val or Lys for Gly while another mutant was prepared at codon 71 substituting a Lys for Glu. These substitutions had been previously shown to result in active Ras molecules (FIG. 8). […] Mutant Ras cDNA was then cloned into the NotI-XbaI cloning site of the mammalian expression vector pEF-BOS which contains a puromycin resistance gene for selection of transfected cells. These expression vectors were then transfected into the IL-3 dependent cell line BaF3 and it was assayed for cytokine-independent growth. BaF3 cells were transfected with the three mutant M-Ras vectors, the wild type M-Ras vector or an empty vector by electroporation using the Gene Pulsar II (Bio-Rad). The settings used were […], 74 ohms and 300 volts with 50 μg of sterile DNA. Pooled transfected cells were selected with puromycin (3 μg/ml) and M-Ras expression was determined by Northern blot. All constructs expressed equivalent amounts of exogenous M-Ras.
The murine T-cell line TS2 grows in response to IL-2 and IL-9 in vitro. […] In addition, the MAPK inhibitor PD98059 has the ability to block M-Ras signaling as described in Example 10. […] Cells which were maintained in medium described in Example 1 plus IL-2, were washed once with phosphate-buffered saline and plated at 3000 cells per well in the presence of 200 U/ml IL-2 or 200 U/ml of IL-9. […] The cells were then harvested onto glass fiber filters and analyzed by scintillation counting.
Cells were plated at 3000 cells/well in the presence or absence of IL-3 and 10 μm PD98059 and assessed for proliferation as described in Example 12. […]

[4] = molecular target: p38 MAPK (Homo sapiens, UniProt Q16539); conditions: Lee et al., 1994; Gallagher et al., 1997; cited from earlier work
Sequence of p38 MAPK (Q16539 whole entry): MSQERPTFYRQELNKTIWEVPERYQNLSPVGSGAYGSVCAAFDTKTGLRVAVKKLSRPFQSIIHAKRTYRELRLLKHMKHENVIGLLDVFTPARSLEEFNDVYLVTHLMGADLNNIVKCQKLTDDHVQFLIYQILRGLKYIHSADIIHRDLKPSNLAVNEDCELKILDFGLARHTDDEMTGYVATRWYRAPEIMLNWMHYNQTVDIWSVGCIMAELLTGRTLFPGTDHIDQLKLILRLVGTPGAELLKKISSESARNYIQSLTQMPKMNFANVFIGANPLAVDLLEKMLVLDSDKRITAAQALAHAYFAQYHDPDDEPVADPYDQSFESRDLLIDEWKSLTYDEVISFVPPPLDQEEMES

[5] = test system: ERK1, 2 or 5 family or JNK family of MAPK; conditions: Lee et al., 1994; Gallagher et al., 1997; cited from earlier work
[6] = test system: M-Ras; test: M-Ras induction in mitogen stimulated splenocytes (RT-PCR); type: cell-based, DBA2 mouse; conditions: DBA2 splenocytes, 5 ug/ml concanavalin A, 10 μg/ml aminosterol, 24 hours
Method: Splenocytes from the DBA2 bronchial hyperresponsive mouse were treated with aminosterol compounds to test for their ability to block the induction of M-Ras in response to mitogens. This group of aminosterols was identified from the liver of the dogfish shark and as a class appear to be antiproliferative. This series of aminosterols was assayed for their ability to inhibit M-Ras expression and TH2 activity in mitogen stimulated splenocytes from the DBA2 mouse.
Splenocytes were isolated from naive DBA2 mice by aseptic removal of spleens from anesthetized mice. Spleens were then minced by sterilized scissors and tissue was passed through a sterilized #60 wire mesh sieve. Cells were resuspended in RPMI medium and washed twice in the same medium. Cells were then resuspended in lysis buffer (4.15 g NaCl, 0.5 g KHCO3, 0.019 g EDTA in 500 ml of dH2O) to lyse red blood cells. Cells were incubated at 37° C. for 5 minutes and resuspended in RPMI plus heat inactivated 10% fetal bovine serum. Cells were then spun down and resuspended in RPMI growth media (as above) plus 5 ug/ml of concanavalin A. Cell cultures were treated with 10 μg/ml of the aminosterol compounds for 24 hours and were then harvested for RNA isolation using the Trizol method described by the manufacturer (Gibco-BRL). […]

[7] = test system: TS2 cells; test: Proliferation of TS2 cells with lovastatin (3H-thymidine incorporation); type: cell-based, murine; conditions: Mus musculus, 72 h; IL-2 or IL-9 5 ng/ml, different concentrations of lovastatin, three days; maximal inhibition; read-out: inhibition of cellular proliferation of TS2 cells as compared to untreated cells
Method: To further test the role of M-Ras in IL-9 signaling, yet another IL-9 responsive cell line was treated with the farnesyl transferase inhibitor lovastatin to determine if the Ras pathway was utilized for proliferation. TS2 cells were washed three times and plated in 96-well plates at a density of 1,000 cells per well. IL-2 or IL-9 was added successively at a concentration of 5 ng/ml together with different concentrations of lovastatin as indicated. DMSO was included as the vehicle control. After three days, the rate of proliferation was determined by ^3H-thymidine incorporation ([…] per well) and percent of inhibition was obtained from the ratio between treated and untreated cells.

[8] = test system: M-Ras; test: M-Ras prenylation in transfected BW5147 cells (immunoprecipitation, SDS-PAGE migration); type: cell-based, murine; conditions: BW5147 cells with pEF-BOS-M-Ras, 4 mg/ml lovastatin, three days, versus untreated
Method: BW5147, a murine thyoma cell line that grows in the absence of any cytokine, was stably transfected with an expression vector containing wild type M-Ras cDNA (pEF-BOS-M-Ras). After two weeks of selection in 3 μg/ml of Puromycin, cells were treated for three days with different compounds previously reported to work as inhibitors of p21 Ras prenylation. Cells were then harvested and proteins were extracted and immunoprecipitated with a rabbit antibody (JAL4) specific for M-Ras. Immunoprecipitates were electrophoretically resolved by SDS-PAGE (18%) and transferred to PVDF membrane. Immunoblots were successively probed with JAL4 antibody (1:1500 dilution) to detect the expression and migratory pattern of M-Ras protein. The non-prenylated form of p21 Ras migrates slower than the fully processed form. […] In contrast, cells transfected with pEF-BOS-M-Ras overexpressed the M-Ras protein.

[9] = test system: TS1-RA3 cells; test: IL-9 induced proliferation of TS1-RA3 cells (acid phosphatase assay); type: cell-based, murine; conditions: grown in IL-9, varying amounts of manumycin A, 4 days; maximal inhibition
Method: Ras molecules have been previously shown to function after prenlylation via farnesyl transferase and subsequent attachment to the inner cytoplasmic membrane. To test the role of M-Ras in IL-9 signaling, IL-9 responsive cells were treated with the farnesyl transferase inhibitor manumycin A in a proliferation assay to determine if the Ras pathway was utilized for proliferation. TS1-RA3 cells, which are a murine TH2 lymphocyte cell line expressing human IL-9 receptor by a transfected expression construct, were grown in the presence of IL-9 and in the absence or in varying amounts of manumycin A for 4 days.

**Q.** Which results are given for `COc1cccc(-c2cc(=O)c3ccccc3o2)c1N` [PD98059]?
**A.** luciferase induction by M-Ras-1, M-Ras-2 and M-Ras-3 mutants [1]: blocked; growth of cells grown in IL-2 ([2]; 200 U/ml IL-2, inhibitor 10 μM, three days): no inhibitory activity; growth of cells grown in IL-9 ([2]; 200 U/ml IL-9, inhibitor 10 μM, three days): growth inhibited; proliferation of cells expressing the mutant M-Ras gene ([3]; BaF3, absence of IL-3, 10 μm PD98059): blocked; IL-3 induced cellular proliferation of M-Ras wild-type transfected cells ([3]; BaF3, with IL-3, 10 μm PD98059): no activity; proliferation of mutant M-Ras cells grown with IL-3 (cellular toxicity check) ([3]; BaF3, with IL-3, 10 μm PD98059): could proliferate

**Q.** For `Oc1ccc(-c2nc(-c3ccncc3)c(-c3ccc(F)cc3)[nH]2)cc1` [SB202190], which “ability of TS2 cells to proliferate in response to IL-2” value ([2]; IL-2, percent growth compared to cytokine only) is on record?
**A.** not

**Q.** And the “ability of TS2 cells to proliferate in response to IL-9” value ([2]; IL-9, percent growth compared to cytokine only)?
**A.** blocked

**Q.** And the “inhibition of p38 MAPK” value [4]?
**A.** specifically inhibit

**Q.** And the “inhibition of ERK1, 2 or 5 family or JNK family of MAPK” value [5]?
**A.** not

**Q.** Which “expression of M-Ras” value [6] does the source give for `CC(C)[C@@H](CC[C@@H](C)[C@H]1CC[C@H]2[C@@H]3[C@H](O)C[C@H]4C[C@@H](NCCCNCCCCNCCCN)CC[C@]4(C)[C@H]3CC[C@]12C)OS(=O)(=O)O` [compound 1436] here?
**A.** no effect

**Q.** With `CC[C@H](C)C(=O)O[C@H]1C[C@@H](C)C=C2C=C[C@H](C)[C@H](CC[C@@H]3C[C@@H](O)CC(=O)O3)[C@H]21` [lovastatin] as the molecule, how does the inhibition at 0.005 µg/mL [7] read?
**A.** ≤ 95%

**Q.** What about the “migration of M-Ras protein on SDS-PAGE (non-prenylated form migrates slower)” value [8] of the same molecule?
**A.** migrated higher

**Q.** Which “inhibition of cellular proliferation of TS1-RA3 cells as compared to untreated cells” value [9] does the source give for `CCCC[C@@H](C)/C=C(C)/C=C(\C)C(=O)NC1=C[C@@](O)(/C=C/C=C/C=C/C(=O)NC2=C(O)CCC2=O)[C@@H]2O[C@@H]2C1=O` [manumycin A] here?
**A.** up to 76%
